Experimental findings from ChEMBL document CHEMBL3044683, “Antifeedant activities of tutin and 7-hydroxycoumarin acylation derivatives against Mythimna separata” (2012) are described below.

Test [1] deals with Mythimna separata. As to the kind of experiment: Antifeedant activity against third-instar larvae of Mythimna separata (Oriental armyworm) at 2 mg/ml applied on wheat leaf after 48 hr by non-choice leaf disk method relative to control. It is filed as functional.
Test [2] concerns Mythimna separata. As to the kind of experiment: Antifeedant activity against third-instar larvae of Mythimna separata (Oriental armyworm) at 2 mg/ml applied on wheat leaf after 24 hr by non-choice leaf disk method relative to control. It is filed as functional.

The structures appear in SMILES notation.

Take `O=C(Oc1ccc2ccc(=O)oc2c1)c1ccc(Cl)cc1Cl` [7-(2,4-DICHLOROBENZOYLOXY)COUMARIN]: the AFI in test [1] was 18.3%; in test [2], 6.3%.

On to `O=C(Oc1ccc2ccc(=O)oc2c1)c1cc([N+](=O)[O-])cc([N+](=O)[O-])c1` [7-(3,5-DINITROBENZOYLOXY)COUMARIN], for which the figures for the AFI in test [1] and in test [2] were 49.1% and 46.7%, respectively.

`O=C(Oc1ccc2ccc(=O)oc2c1)c1ccc(Cl)cc1` [7-(4-CHLOROBENZOYLOXY)COUMARIN]: the AFI in test [1] is listed as 17.5%; in test [2], 9.2%.

Turning to `COc1ccc(C(=O)Oc2ccc3ccc(=O)oc3c2)cc1` [7-(4-METHOXYBENZOYLOXY)COUMARIN], the AFI in test [1] was determined as 35.4%; in test [2] it was 32.3%.

`O=C(Oc1ccc2ccc(=O)oc2c1)c1ccc([N+](=O)[O-])cc1` [7-(4-NITROBENZOYLOXY)COUMARIN]: the figures for the AFI in test [1] and in test [2] were 10.8% and -7.5%, respectively.

For the compound `O=C(Oc1ccc2ccc(=O)oc2c1)c1ccc(Cl)nc1` [7-(6-CHLORONICOTINOYLOXY)COUMARIN], the AFI in test [1] is 37.9%; in test [2] it was 45.3%.

With `CS(=O)(=O)Oc1ccc2ccc(=O)oc2c1` [7-METHANESULFONYLOXYCOUMARIN], the AFI in test [1] turned out to be 53.7%; in test [2] it was 62.4%.

As to `C=C1CC[C@@H]2[C@](C)(CO)[C@H](O)CC[C@@]2(C)[C@@H]1C/C=C1/C(=O)OC[C@H]1O` [ANDROGRAPHOLIDE], the AFI in test [1] is given as 9.6%; in test [2] it was 26.7%.

Take `C/C=C(\C)C(=O)O[C@H]1C[C@@H](OC(C)=O)[C@@]2(C(=O)OC)CO[C@H]3[C@@H](O)[C@@](C)([C@]45O[C@@]4(C)[C@@H]4C[C@H]5O[C@@H]5OC=C[C@@]54O)[C@H]4[C@]1(CO[C@]4(O)C(=O)OC)[C@@H]32` [AZADIRACHTIN A]: the figures for the AFI in test [1] and in test [2] were 43.8% and 37.3%, respectively.

Take `C=C(C)[C@H]1[C@H]2OC(=O)[C@@H]1[C@@]1(O)[C@H]3O[C@H]3[C@]3(CO3)[C@]1(C)[C@@H]2O` [TUTIN]: the AFI in test [1] turned out to be 31.8%; in test [2] it was 22.7%.

With `O=c1ccc2ccc(O)cc2o1` [UMBELLIFERONE], the AFI in test [1] was found to be 17.3%; in test [2], 25.4%.
